ED50 data for 6 compounds are collected here from EP0104611A2, “Thiatriazine derivatives” (HOECHST UK LIMITED, priority 1982, dated 1984).

The test system of this assay is perfused rat stomach. Kind of assay: antisecretory activity in the perfused rat stomach (inhibition of histamine- or pentagastrin-stimulated acid secretion). The assay is classed as in vivo. As to conditions: iv, amount required to inhibit the histamine- or pentagastrin-stimulated secretion by 50 %, two to four rats per determination, read-out: ID50 (μmoles/kg) Rat perfused stomach i.v. The method, then: Compounds of this invention were tested for […]- tory activity in the perfused rat stomach. The method of Gosh and Schild, Brit. […] After the secretion plateau was reached, the test compound was administered i.v. and the amount of comound required to inhibit the stimulated secretion by 50 % was determined. Two to four rats were used for each determination. [drawing 17]

Molecules are shown by their SMILES.

As for `CN1C(N)=NS(=O)(=O)N=C1NCCSCc1csc(N=C(N)N)n1` [-NH2, 3-N-[2-[(2-Guanidino-4-thiazolyl)methylthio]-ethyl]-amino-4-methyl-5-amino-1,2,4,6-thiatriazine-1,1-dioxide], the ED50 was 0.15 µmol/kg.

Regarding `CC(C)NC1=NS(=O)(=O)N=C(NCCSCc2csc(N=C(N)N)n2)N1C` [-NH-CH(CH3)2], the ED50 was 0.28 µmol/kg. In the case of `CN(C)C1=NS(=O)(=O)N=C(NCCSCc2csc(N=C(N)N)n2)N1C` [-N(CH3)2], the ED50 turned out to be 0.095 µmol/kg. Take `CN/C(=N/CCSCc1nc[nH]c1C)NC#N` [Cimetidine, reference compound]: the ED50 was 10.8 µmol/kg. The same measure for `CN1C(NC#N)=NS(=O)(=O)N=C1NCCSCc1csc(N=C(N)N)n1` [-NHCN]: 0.34 µmol/kg; for `C#CCNC1=NS(=O)(=O)N=C(NCCSCc2csc(N=C(N)N)n2)N1C` [-NHCH2C≡CH]: 0.12 µmol/kg.
